According to PubChem BioAssay (NCI):
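1) Cells in 96-well plates. 2) Compound, 48 h, 5 concentrations. 3) Linear interpolation between surrounding doses. 4) Unreached endpoint = highest concentration. The concentration for 50% growth inhibition is given as GI50. The concentration for full growth arrest is given as TGI.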

Assays:
Assay in all cases: DTP human tumour cell line panel, 48 h; in the data active = GI50 below about 0.43 µM; inactive = the rest
786-0 renal = tested on: 786-0 renal
A549 NSCLC = tested on: A549 NSCLC
ACHN renal = tested on: ACHN renal
BT-549 breast = tested on: BT-549 breast
CAKI-1 renal = tested on: CAKI-1 renal
CCRF-CEM leukemia = tested on: CCRF-CEM leukemia
COLO 205 colon = tested on: COLO 205 colon
DU-145 prostate = tested on: DU-145 prostate
EKVX NSCLC = tested on: EKVX NSCLC
HCC-2998 colon = tested on: HCC-2998 colon
HCT-116 colon = tested on: HCT-116 colon
HCT-15 colon = tested on: HCT-15 colon
HL-60(TB) leukemia = tested on: HL-60(TB) leukemia
HOP-62 NSCLC = tested on: HOP-62 NSCLC
HOP-92 NSCLC = tested on: HOP-92 NSCLC
HS 578T breast = tested on: HS 578T breast
HT29 colon = tested on: HT29 colon
IGROV1 ovarian = tested on: IGROV1 ovarian
KM12 colon = tested on: KM12 colon
LOX IMVI melanoma = tested on: LOX IMVI melanoma
M14 melanoma = tested on: M14 melanoma
MALME-3M melanoma = tested on: MALME-3M melanoma
MCF7 breast = tested on: MCF7 breast
MDA-MB-231 breast = tested on: MDA-MB-231 breast
MDA-MB-435 = tested on: MDA-MB-435
MOLT-4 leukemia = tested on: MOLT-4 leukemia
NCI-H226 lung = tested on: NCI-H226 lung
NCI-H23 lung = tested on: NCI-H23 lung
NCI-H460 lung = tested on: NCI-H460 lung
NCI-H522 lung = tested on: NCI-H522 lung
NCI/ADR-RES ovarian = tested on: NCI/ADR-RES ovarian
OVCAR-3 ovarian = tested on: OVCAR-3 ovarian
OVCAR-4 ovarian = tested on: OVCAR-4 ovarian
OVCAR-5 ovarian = tested on: OVCAR-5 ovarian
OVCAR-8 ovarian = tested on: OVCAR-8 ovarian
PC-3 prostate = tested on: PC-3 prostate
RPMI-8226 leukemia = tested on: RPMI-8226 leukemia
RXF 393 renal = tested on: RXF 393 renal
SF-268 CNS = tested on: SF-268 CNS
SF-295 CNS = tested on: SF-295 CNS
SF-539 CNS = tested on: SF-539 CNS
SK-MEL-2 melanoma = tested on: SK-MEL-2 melanoma
SK-MEL-28 melanoma = tested on: SK-MEL-28 melanoma
SK-MEL-5 melanoma = tested on: SK-MEL-5 melanoma
SK-OV-3 ovarian = tested on: SK-OV-3 ovarian
SN12C renal = tested on: SN12C renal
SNB-19 CNS = tested on: SNB-19 CNS
SNB-75 CNS = tested on: SNB-75 CNS
SR leukemia = tested on: SR leukemia
SW-620 colon = tested on: SW-620 colon
T-47D breast = tested on: T-47D breast
TK-10 renal = tested on: TK-10 renal
U251 CNS = tested on: U251 CNS
UACC-257 melanoma = tested on: UACC-257 melanoma
UACC-62 melanoma = tested on: UACC-62 melanoma
UO-31 renal = tested on: UO-31 renal

O=C(N/N=C/c1ccc([N+](=O)[O-])o1)c1ccc(O)cc1
21.4 µM: TGI (786-0 renal)
23.1 µM: TGI (IGROV1 ovarian)
32.7 µM: TGI (T-47D breast)
16.9 µM: TGI (LOX IMVI melanoma)
12 µM: TGI (HCT-116 colon)
inactive: GI50 (786-0 renal) 9.17 µM | GI50 (A549 NSCLC) 4.71 µM | GI50 (ACHN renal) 5.46 µM | GI50 (BT-549 breast) 10.7 µM | GI50 (CAKI-1 renal) 7.26 µM | GI50 (CCRF-CEM leukemia) 0.804 µM | GI50 (COLO 205 colon) 4.63 µM | GI50 (DU-145 prostate) 6.38 µM | GI50 (EKVX NSCLC) 8.46 µM | GI50 (HCC-2998 colon) 4.98 µM | GI50 (HCT-116 colon) 3.63 µM | GI50 (HCT-15 colon) 4.06 µM | GI50 (HL-60(TB) leukemia) 2.48 µM | GI50 (HOP-62 NSCLC) 6.2 µM | GI50 (HOP-92 NSCLC) 17.5 µM | GI50 (HS 578T breast) 21.7 µM | GI50 (HT29 colon) 5.88 µM | GI50 (IGROV1 ovarian) 5.19 µM | GI50 (KM12 colon) 5.43 µM | GI50 (LOX IMVI melanoma) 2.15 µM | GI50 (M14 melanoma) 3.67 µM | GI50 (MALME-3M melanoma) 1.11 µM | GI50 (MCF7 breast) 2.84 µM | GI50 (MDA-MB-231 breast) 10.8 µM | GI50 (MDA-MB-435) 1.65 µM | GI50 (MOLT-4 leukemia) 5.69 µM | GI50 (NCI-H226 lung) 12.7 µM | GI50 (NCI-H23 lung) 2.97 µM | GI50 (NCI-H460 lung) 3.37 µM | GI50 (NCI-H522 lung) 6.59 µM | GI50 (NCI/ADR-RES ovarian) 5.54 µM | GI50 (OVCAR-3 ovarian) 8.33 µM | GI50 (OVCAR-4 ovarian) 1.72 µM | GI50 (OVCAR-5 ovarian) 9.32 µM | GI50 (OVCAR-8 ovarian) 4.86 µM | GI50 (PC-3 prostate) 27 µM | GI50 (RPMI-8226 leukemia) 3.35 µM | GI50 (RXF 393 renal) 12.9 µM | GI50 (SF-268 CNS) 6.73 µM | GI50 (SF-295 CNS) 4.26 µM | GI50 (SF-539 CNS) 4.39 µM | GI50 (SK-MEL-2 melanoma) 11.3 µM | GI50 (SK-MEL-28 melanoma) 14.7 µM | GI50 (SK-MEL-5 melanoma) 1.47 µM | GI50 (SK-OV-3 ovarian) 17.5 µM | GI50 (SN12C renal) 4.03 µM | GI50 (SNB-19 CNS) 5.39 µM | GI50 (SNB-75 CNS) 17.4 µM | GI50 (SR leukemia) 2.84 µM | GI50 (SW-620 colon) 3.85 µM | GI50 (T-47D breast) 6.96 µM | GI50 (TK-10 renal) > 100 µM | GI50 (U251 CNS) 5.17 µM | GI50 (UACC-257 melanoma) 4.97 µM | GI50 (UACC-62 melanoma) 2.21 µM | GI50 (UO-31 renal) 23.7 µM
80.9 µM: TGI (HOP-92 NSCLC)
11.4 µM: TGI (NCI-H23 lung)
36.1 µM: TGI (OVCAR-3 ovarian)
2.88 µM: TGI (SK-MEL-5 melanoma)
> 100 µM: TGI (A549 NSCLC) | TGI (ACHN renal) | TGI (CAKI-1 renal) | TGI (DU-145 prostate) | TGI (HCC-2998 colon) | TGI (HOP-62 NSCLC) | TGI (HS 578T breast) | TGI (HT29 colon) | TGI (KM12 colon) | TGI (MDA-MB-231 breast) | TGI (MOLT-4 leukemia) | TGI (NCI-H226 lung) | TGI (NCI-H460 lung) | TGI (NCI/ADR-RES ovarian) | TGI (OVCAR-5 ovarian) | TGI (OVCAR-8 ovarian) | TGI (PC-3 prostate) | TGI (SF-268 CNS) | TGI (SF-295 CNS) | TGI (SK-MEL-2 melanoma) | TGI (SK-MEL-28 melanoma) | TGI (SK-OV-3 ovarian) | TGI (SN12C renal) | TGI (SNB-19 CNS) | TGI (SR leukemia) | TGI (SW-620 colon) | TGI (TK-10 renal) | TGI (U251 CNS) | TGI (UO-31 renal)
17 µM: TGI (SF-539 CNS)
42.9 µM: TGI (EKVX NSCLC)
3.19 µM: TGI (MDA-MB-435)
11.3 µM: TGI (M14 melanoma)
2.56 µM: TGI (MALME-3M melanoma)
26.7 µM: TGI (NCI-H522 lung)
14 µM: TGI (MCF7 breast)
83.2 µM: TGI (SNB-75 CNS)
18.8 µM: TGI (UACC-257 melanoma)
73.8 µM: TGI (RXF 393 renal)
25.4 µM: TGI (HCT-15 colon)
6.93 µM: TGI (UACC-62 melanoma)
4.51 µM: TGI (OVCAR-4 ovarian)
28 µM: TGI (BT-549 breast)
48.3 µM: TGI (RPMI-8226 leukemia)
70.5 µM: TGI (CCRF-CEM leukemia)
6.9 µM: TGI (HL-60(TB) leukemia)
16.1 µM: TGI (COLO 205 colon)
